Measurements as given in paper PMC11229689, “In Vitro Selection of Macrocyclic L-α/D-α/β/γ-Hybrid Peptides Targeting IFN-γ/IFNGR1 Protein–Protein Interaction” (Journal of the American Chemical Society, 2024).
Where two headings read alike, the source gives them in different places. *1 amine or outer side, *2 acyl side, *3 side chain or, on linkers, in order; H or OH if unused. Where a SMILES comes first, the peptide text is derived from it. Bridges are numbered along the chain shown (N, C = ends). [ ]: non-standard residue; d: D form. Acbc(trans-1,3) = O=C([C@H]1C[C@H](N[*:1])C1)[*:2]; Acbc(cis-1,3) = O=C([C@H]1C[C@@H](N[*:1])C1)[*:2]; X1 = O=C([C@@H]1CCC[C@@H]1N[*:1])[*:2]; Orn = NCCC[C@H](N)C(=O)O

How the values were obtained:
[1] = biological target: T1, Fc-tagged human IFNGR1 (Homo sapiens, UniProt P15260); test: Binding kinetics and affinity to IFNGR1 by surface plasmon resonance (SPR); conditions: SPR, 25 °C, 1:1 binding model; for Kd: read-out: KD; for kon: single-cycle kinetics, read-out: ka
T1 construct: purchased ACROBiosystems
T1 sequence (P15260 18-489): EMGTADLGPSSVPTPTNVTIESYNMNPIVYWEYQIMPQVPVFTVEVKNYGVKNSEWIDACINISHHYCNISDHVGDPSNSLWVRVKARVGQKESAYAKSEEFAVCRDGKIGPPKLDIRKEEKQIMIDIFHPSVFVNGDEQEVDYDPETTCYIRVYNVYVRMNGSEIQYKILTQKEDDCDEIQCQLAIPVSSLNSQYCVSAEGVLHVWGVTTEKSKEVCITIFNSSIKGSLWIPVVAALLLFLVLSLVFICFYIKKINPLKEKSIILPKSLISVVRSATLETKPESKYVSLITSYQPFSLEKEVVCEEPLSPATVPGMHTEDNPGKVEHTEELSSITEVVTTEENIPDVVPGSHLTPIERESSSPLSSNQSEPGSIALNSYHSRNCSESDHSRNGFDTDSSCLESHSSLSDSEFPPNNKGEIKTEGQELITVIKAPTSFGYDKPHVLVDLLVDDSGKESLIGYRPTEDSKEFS
In short: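 Fc-tagged IFNGR1 captured on a protein G chip (1,200–1,600 RU), 25 °C, running buffer 10 mM Tris-HCl pH 8.0, 150 mM NaCl, 0.05% Tween 20, 0.1% DMSO. Single-cycle kinetics with five twofold-diluted peptide concentrations at 30 μL/min. Sensorgrams fitted to a 1:1 binding model for kinetic constants and affinity.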

[2] = Serum stability assay (LC/MS); assay type: in vitro ADME, human; conditions: for half-life: human
Description: Binding affinities of IA1 and IA2 against IFNGR1 were evaluated by surface plasmon resonance (SPR) (Table 1 and SI Figure S6A). […] To investigate the contribution of the N-terminal [yVPβ^1RR] motif and β^1 residue in IA1, three scrambled peptides IA1s1–3 and a variant IA1β^14A were synthesized and evaluated. […] We next evaluated inhibitory activities of IA1 and IA2 against the ligand–receptor PPI between IFN-γ and IFNGR1 using AlphaLISA (Table 1 and SI Figure S7).[37] […] We also determined the serum half-lives of IA1 and IA2, considering peptidase resistance as an important factor for therapeutic peptides.[24] A sample peptide and a peptidase-resistant internal standard peptide were coincubated in human serum at 37 °C, and the relative amount of the remaining sample peptide was estimated by LC/MS. […]
10–200 μM synthetic peptide and 5 μM serum-resistant internal standard peptide consisting only of D-amino acids (NH2-PEG5-wstndwstnd-PEG5-CONH2)3 were mixed and incubated in human serum (Cosmo Bio, 12181201) at 37 °C for up to 120 h. At each time point, 4 μL of the mixture was removed and quenched by adding 12 μl methanol. Following centrifugation (15,000 g, 4 °C, 5 min), 10 μL of the supernatant was mixed with 40 μl of 1% (v/v) TFA. Following centrifugation (15,000 g, 4 °C, 5 min), the supernatant was collected for LC/MS analysis, which used a reverse-phase column (ACQUITY UPLC BEH C18, 1.7 μm, 2.1 × 150 mm; Waters) and a Xevo G2-XS QTof system (Waters) with a linear gradient from 1% B to 61% B. Buffer A was water with 0.1% (v/v) formic acid; buffer B was acetonitrile with 0.1% (v/v) formic acid. The percentages of remaining peptides were determined by the peak area integration of the chromatograms. For tandem mass spectrometry, MS/MS spectra were acquired with a 0.2 s scan time, with 10−30 eV collision energy. The obtained LC/MS data was analyzed using MassLynx 4.1 (Waters). […]

[3] = tested on: HEK-Dual IFN-γ cells; test: Cell viability assay (CCK-8); conditions: up to 50 μM, 24 h incubation
[4] = biological target: T2, IFN-γ/IFNGR1 protein–protein interaction (Homo sapiens, UniProt P15260); test: IFNGR1 inhibition assay using AlphaLISA; assay type: biochemical; conditions: four-parameter dose–response fit, n = 3
T2 construct: purchased ACROBiosystems
T2 sequence (P15260 18-245 limits assumed): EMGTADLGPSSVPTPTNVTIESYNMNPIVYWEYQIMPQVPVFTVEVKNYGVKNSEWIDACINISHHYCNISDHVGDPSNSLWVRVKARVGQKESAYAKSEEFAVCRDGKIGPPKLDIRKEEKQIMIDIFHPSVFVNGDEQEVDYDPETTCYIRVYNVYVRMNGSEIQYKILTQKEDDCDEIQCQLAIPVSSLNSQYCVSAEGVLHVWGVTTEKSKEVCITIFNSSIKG
Description: IFNGR1 inhibition assay using AlphaLISA
The inhibitory activity of peptides against IFN-γ/IFNGR1 protein–protein interaction (PPI) was determined by AlphaLISA.5 Peptides, proteins, and beads were diluted in AlphaLISA immunoassay buffer (PerkinElmer, AL000C). 3.6 μL of 5 nM Fc-tagged IFNGR1 and 3.6 μL of synthetic peptides were mixed in AlphaPlate-384 Shallow Well (PerkinElmer) and preincubated at 25 °C for 10 min. 3.6 μL of 15 nM biotin-tagged IFN-γ was then added to the mix and incubated at 25 °C for 20 min. 3.6 μL each human IgG acceptor beads (PerkinElmer) and streptavidin donor beads (PerkinElmer) were added to the above mix and incubated at 25 °C for 30 min in dark place. Emission at 615 nm was measured […]
by EnSpire Multimode Plate Reader (PerkinElmer). The fraction of bound IFN-γ/IFNGR1 was calculated by the intensity of emission in the presence of peptide divided by that in the absence of […]
peptide. […]
Puromycin. Normocin, Blasticidin, Zeocin, and Puromycin were excluded when conducting the experiments. To evaluate the cellular activity of peptides, peptide mixtures were added to 50,000 cells/well in a flat-bottom 96-well plate and pre-incubated for 30 min at 37 °C before stimulation.
Subsequently, 1 ng/mL of recombinant IFN-γ (InvivoGen) was added to each well in a final reaction volume of 200 μL, followed by incubation for 20 h at 37 °C. 20 μL of supernatants from the induced cells was added to 180 μL Q U A N T I-Blue TM solution (InvivoGen). After further incubation for 3 h at 37 °C, the expression levels of the secreted embryonic alkaline phosphatase (SEAP) were determined by reading the O.D. at 650 nm on a Tecan M1000 PRO microplate reader (Tecan Group) and normalized to the non-treated well. IC50 value was analyzed by a normalized dose-response curve fitting by using GraphPad Prism 9.
HEK-DualTM IFN-γ cells were used for the cell viability assay. 10,000 cells/well were added to each well in a flat-bottom 96-well plate. After 24 h, peptide mixtures were added to each well in a final volume of 100 μL. After further incubation for 24 h, 10 μL CCK-8 reagent (Dojindo) was added to […]

[5] = human serum, 37 °C, LC/MS, relative to internal standard peptide, n = 3, read-out: half-life in human serum (t1/2) (converted)

Row | Kd [1] | kon [1] | half-life [2, 5] | IC50 [4] | half-life ([2]; serum, half-life in human serum (t1/2)) | half-life in human serum (t1/2) ([2]; human serum, 37 °C, LC/MS, relative to internal standard peptide, n = 3) | SMILES | cytotoxicity [3]
1 | 17 ± 5 nM | 320000 ± 50000 M⁻¹ s⁻¹ | 34 ± 2 h | 27 ± 4 nM |  |  | CC(C)[C@@H]1NC(=O)[C@@H](Cc2ccc(O)cc2)NC(=O)CSC[C@H](C(N)=O)NC(=O)[C@H](CC(N)=O)NC(=O)[C@H](Cc2c[nH]cn2)NC(=O)[C@H](CCCNC(=N)N)NC(=O)[C@H]2C[C@H](C2)NC(=O)[C@H]([C@@H](C)O)NC(=O)[C@H](Cc2c[nH]cn2)NC(=O)[C@@H]2CCCN2C(=O)[C@H](CO)NC(=O)[C@H](CCCNC(=N)N)NC(=O)[C@H](CCCNC(=N)N)NC(=O)[C@@H]2CCC[C@@H]2NC(=O)[C@@H]2CCCN2C1=O [IB5γ^211γ^1, ^AcyVPβ^1RRSPHTγ^1RHNc-NH2] ({CH2CO}-[dY]VP[X1]RRSPHT[Acbc(cis-1,3)]RHN[dC]-NH2; thioether N-15) | none of them exhibited notable cytotoxicity up to 50 μM
2 | 12 ± 1 nM | 4.7e+06 ± 600000 M⁻¹ s⁻¹ | 49 ± 4 h | 15 ± 5 nM |  |  | CC(C)[C@@H]1NC(=O)[C@@H](Cc2ccc(O)cc2)NC(=O)CSC[C@H](C(N)=O)NC(=O)[C@H](CC(N)=O)NC(=O)[C@H]2C[C@H](C2)NC(=O)[C@H](CCCN)NC(=O)[C@@H]2CCCN2C(=O)[C@H]([C@@H](C)O)NC(=O)[C@H](CCCN)NC(=O)[C@H](CCCN)NC(=O)[C@H](CO)NC(=O)[C@H](CCCNC(=N)N)NC(=O)[C@H](CCCNC(=N)N)NC(=O)[C@@H]2CCC[C@@H]2NC(=O)[C@@H]2CCCN2C1=O [IB4γ^213γ^1Orn, ^AcyVPβ^1RRSOOTPOγ^1Nc-NH2] ({CH2CO}-[dY]VP[X1]RRS[Orn][Orn]TP[Orn][Acbc(cis-1,3)]N[dC]-NH2; thioether N-15) | none of them exhibited notable cytotoxicity up to 50 μM
3 | 22 ± 11 nM | 160000 ± 190000 M⁻¹ s⁻¹ | < 1.3 h | 47 ± 15 nM |  | 1.1 ± 0.0 h | CC(C)[C@@H]1NC(=O)[C@@H](Cc2ccc(O)cc2)NC(=O)CSC[C@H](C(N)=O)NC(=O)[C@H](CC(N)=O)NC(=O)[C@H]2C[C@@H](C2)NC(=O)[C@H](CCCNC(=N)N)NC(=O)[C@@H]2CCCN2C(=O)[C@H]([C@@H](C)O)NC(=O)[C@H](CCCNC(=N)N)NC(=O)[C@H](CCCNC(=N)N)NC(=O)[C@H](CO)NC(=O)[C@H](CCCNC(=N)N)NC(=O)[C@H](CCCNC(=N)N)NC(=O)[C@@H]2CCC[C@@H]2NC(=O)[C@@H]2CCCN2C1=O [IB4, ^AcyVPβ^1RRSRRTPRγ^2Nc-NH2] ({CH2CO}-[dY]VP[X1]RRSRRTPR[Acbc(trans-1,3)]N[dC]-NH2; thioether N-15) | 

Further lines, the compound ahead of its results:

Row | SMILES | Kd [1] | kon [1] | half-life [2, 5] | IC50 [4] | half-life ([2]; serum, half-life in human serum (t1/2)) | half-life in human serum (t1/2) ([2]; human serum, 37 °C, LC/MS, relative to internal standard peptide, n = 3) | cytotoxicity [3]
4 | CC(C)[C@@H]1NC(=O)[C@@H](Cc2ccc(O)cc2)NC(=O)CSC[C@H](C(N)=O)NC(=O)[C@H](C)NC(=O)[C@H](CO)NC(=O)[C@H](CCCN)NC(=O)[C@H](CCCN)NC(=O)CNC(=O)[C@H]2C[C@H](C2)NC(=O)[C@H](Cc2c[nH]cn2)NC(=O)[C@H](CC(N)=O)NC(=O)[C@H](CCCNC(=N)N)NC(=O)[C@H](CCCNC(=N)N)NC(=O)[C@@H]2CCC[C@@H]2NC(=O)[C@H](C)NC1=O [IB3Orn, ^AcyVAβ^1RRNHγ^1GOOSAc-NH2] ({CH2CO}-[dY]VA[X1]RRNH[Acbc(cis-1,3)]G[Orn][Orn]SA[dC]-NH2; thioether N-15) | 34 ± 5 nM | 950000 ± 680000 M⁻¹ s⁻¹ |  | 70 ± 4 nM | 42 ± 2 h |  | 
5 | CC(C)[C@@H]1NC(=O)[C@@H](Cc2ccc(O)cc2)NC(=O)CSC[C@H](C(N)=O)NC(=O)[C@H](CCCNC(=N)N)NC(=O)[C@H](CO)NC(=O)[C@H](CCCNC(=N)N)NC(=O)[C@H](Cc2c[nH]cn2)NC(=O)CNC(=O)[C@H](C)NC(=O)[C@H](Cc2c[nH]cn2)NC(=O)[C@H](CC(N)=O)NC(=O)[C@H](CCCNC(=N)N)NC(=O)[C@H](CCCNC(=N)N)NC(=O)[C@@H]2CCC[C@@H]2NC(=O)[C@H](C)NC1=O [IB1γ^19A, ^AcyVAβ^1RRNHA GHRSRc-NH2] ({CH2CO}-[dY]VA[X1]RRNHAGHRSR[dC]-NH2; thioether N-15) | 9.5 ± 4 nM | 110000 ± 20000 M⁻¹ s⁻¹ | 0.17 ± 0.01 h | 11 ± 4 nM |  |  | 
